Test results taken from patent US7507792B2, “MDA-7 proteins and methods of use thereof” (The Trustees of Columbia University In The City of New York, priority 1993, dated 2009).

How the values were obtained:
Type in all cases: cell-based, human
[1] = test system: mda-6 (WAF1/CIP1/SDI1); conditions: HL-525, RA 1 μM; for time of treatment at which mda-6 expression is induced: TPA 3 nM, Vit D3 400 nM, 1 to 12 h test period
Description: HL-60 cells were originally provided by Dr. R. C. Gallo (National Cancer Institute, Bethesda, Md.) (Collins et al., 1978; Huberman & Callaham, 1979). HL-60 cells designated HL-525 were derived by cloning HL-60 cells after subculturing 102 times in the presence of increasing concentrations (up to 3 μM) of TPA at 5- to 8-day intervals (Homma et al., 1986; Mitchell et al., 1986). […] Prior to the experiments described in this study, the HL-525 cells were subcultured more than 20 times in the absence of TPA. Cells were grown in 100-mm tissue culture dishes in RPMI 1640 medium supplemented with 20% fetal bovine serum, penicillin (100 units/ml) and streptomycin (100 μg/ml) (Grand Island Biological Co., NY) at 37° C. in an atmosphere of 5% CO2 in air in a humidified incubator. The 1,25-(OH)2D3(Vit D3) and TPA were dissolved in a final concentration of 0.01% DMSO, and all-trans retinoic acid (RA) was dissolved in 0.1% DMSO in culture medium. […] Control cultures were treated with DMSO at a final concentration of 0.1% in culture medium. For experiments designed to test the effect of DMSO on HL-60 and HL-525 cells, DMSO was added to tissue culture medium at a final concentration of 1%. Stock solutions of CHX (10 mg/ml) were prepared in culture medium. CHX was added at a final concentration of 10 μg/ml. To examine a requirement for protein synthesis on mda-6 gene expression, HL-60 or HL-525 cells were seeded into 150 mm Petri dishes (5×10^5 cells/ml) in 30 ml of medium. CHX was added to a final concentration of 10 μg/ml 15 min prior to the addition of TPA to 3 nM. Cells were harvested at various times after addition of TPA for subsequent RNA isolation and analysis.
RNA was purified by centrifugation through a CsC1 cushion as described by Chirgwin et al. (1979). Ten μg of RNA was denatured with glyoxal/DMSO, electrophoresed on 1.0% agarose gels, transferred to nylon membranes, hybridized to a ^32P-labeled mda-6 probe (Jiang and Fisher, 1993) and then after stripping the membrane hybridized to a ^32P-labeled rat GAPDH probe (Fort et al., 1985), as described previously (Reddy et at., 1991; Su et al., 1991; Jiang et al., 1992). Following hybridization, the filters were washed and exposed for autoradiography (Reddy et al., 1991; Su et al., 1991; Jiang et al., 1992). mda-6 and GAPDH gene expression were also determined by reverse transcription-polymerase chain reaction (RT-PCR) as described (Adollahi et al. 1991; Lin et al., 1994). Total cytoplasmic RNA was treated with 0.5 units DNase (Boehringer-Mannheim Biochemicals)/μg RNA in 15% glycerol, 10 mM Tris, pH 7.5, 2.5 mM MgCl2, 0.1 mM EDTA, 80 mM KC1, 1 mM CaCl2 and 1 unit/ml RNasin (Promega) at 30° C. for 10 min. RNA was extracted with phenol-chloroform, precipitated with sodium acetate/ethanol and RNA pellets were resuspended in diethylpyrocarbonate-treated H2O. One μg of total RNA was reverse transcribed with 200 units of murine leukemia virus reverse transcriptase (Bethesda Research Laboratories) in 20 μl containing 1 mM deoxyribonucleotide triphosphates, 4 mM MgCl2, 10 mM Tris, pH 8.3, 50 mM KC1, 0.001% gelatin and 0.2 μg oligo-dT primer. Samples were diluted to 100 μl with buffer containing 0.2 mM deoxyribonucleotide triphosphates, 2 mM MgCl2, 10 mM Tris, pH 8.3, 50 mM KC1 and 0.001% gelatin. […]

[2] = test system: mda-9; test: mda-9 expression (Northern blotting); conditions: H0-1
Description: The mass excision of the library was performed using ExAssist helper phage as described above. The SOLR strain of Escherichia coli and cDNA phagemids were mixed at 37° C. for 15 min and plated onto LB plates containing ampicillin and IPTG/X-gal. White colonies were chosen at random, isolated and grown in LB medium. Plasmid minireps and restriction enzyme digestions were performed to confirm the presence of inserts. The inserts were isolated and used as robes for Northern blotting analysis (5,25). […] Radiolabeled probes were generated by random oligonucleotide priming (25). Prehybridization, hybridization, posthybridization washes, and autoradiography were performed as described (5,18,25).

[3] = test system: H0-1 cells; test: Northern blotting analysis of steady-state mRNA levels; conditions: FIG. 1 concentrations
Description: Steady-state levels of specific mRNAs were determined by Northern blotting analysis of total RNA probed with appropriate ^32P-labeled gene probes as described previously (14-16). RNAs were analyzed from cells treated with inducer for 24 hours, treated for 24 hours with inducer followed by growth for 72 hours in the absence of inducer, or treated continuously for 96 hours with the inducer. The concentration of inducing compounds used were the same as those used for growth studies. The effect of conditioned medium on gene expression changes was determined by treating H0-1 cells for 24 hours with a 1:2 dilution of conditioned medium (equal volumes of conditioned medium and DMEM supplemented with 10% fetal bovine serum (DMEM-10) or for 96 hours with a 1:4 dilution of conditioned medium (1 vol. of conditioned medium to 3 vol. of DMEM-10). The probes used in the present study were specific for β-actin (17), γ-actin (17), c-jun (18), c-myc (19), fibronectin (20), gro/MGSA (21), HLA Class I antigen (22), HLA Class II antigen (HLA-DRβ) (22), α5 integrin (23), β1 integrin (24), ISG-15 (25), ISG-54 (25), jun-B (26), and tenascin (27). Northern blots were also probed with a ^32P-labeled GAPDH gene (15) to verify similar mRNA expression under the various experimental conditions. Following hybridization, the filters were washed and exposed for autoradiography.

[4] = 96 hours, doses of FIG. 15 legend

SMILES	time of treatment at which mda-6 expression is induced [1]	mda-9 expression [2, 4]	time of treatment at which mda-6 expression is detected ([1]; extended treatment 12 h to 6 d)	HLA Class I antigen gene expression ([3]; 96 h)	fibronectin expression ([3]; 96 h)	induction of gro/MGSA gene expression ([3]; 96 h)	tenascin expression ([3]; 96 h)	α5 integrin expression ([3]; 96 h)	β-actin and γ-actin expression ([3]; 96 h)	mda-9 expression ([2]; 24 hours, doses of FIG. 19, phenyl butyrate 24 hours, 4 days or 7 days)	c-jun and jun-B expression ([3]; 96 hours)	c-myc expression ([3]; 96 hours)
CCCCCCCCCCCCCC(=O)O[C@@H]1[C@@H](C)[C@@]2(O)[C@@H](C=C(CO)C[C@]3(O)C(=O)C(C)=C[C@@H]23)[C@@H]2C(C)(C)[C@]12OC(C)=O [TPA, 12-O-tetradecanoyl-phorbol-13-acetate]	12 h	–	–	–	–	–	–	–	–	–	–	–
CC1=C(/C=C/C(C)=C/C=C/C(C)=C/C(=O)O)C(C)(C)CCC1 [RA, trans-retinoic acid]	> 12 h	No change in mda-9 expression	2 days	did not significantly alter	least effective	did not	decreased tenascin expression	reduced	did not significantly alter	–	–	–
C=C(C)[C@@]12O[C@@]3(c4ccccc4)O[C@@H]1[C@@H]1[C@@H]4O[C@]4(CO)[C@@H](O)[C@]4(O)C(=O)C(C)=C[C@H]4[C@@]1(O3)[C@H](C)[C@H]2OC(=O)/C=C/C=C/c1ccccc1 [MEZ, mezerein]	–	No change in mda-9 expression	–	did not significantly alter	less potent	did not	decreased tenascin expression	–	–	Increased expression	increase	downregulated
